Measurements from ChEMBL document CHEMBL1130308, “Cytotoxicity of bis(phenylamidinium)furan alkyl derivatives in human tumour cell lines: Relation to DNA minor groove binding” (Bioorg Med Chem Lett, 1997).

What was measured:
Type in all cases: functional, cell-based
A2780 [1] = test: The compound was tested for cytotoxic potency against A2780 human tumor cell lines.
A2780 [2] = test: The compound was tested for cytotoxic potency against A2780R human tumor cell lines.
CH1 = test: The compound was tested for cytotoxic potency against CH1 human tumor cell lines.
SK-OV-3 = test: The compound was tested for cytotoxic potency against SKOV-3 human tumor cell lines.
A2780 [3] = test: The compound was tested for cytotoxic potency against A2780 human tumor cell lines

| Molecule | IC50 (A2780 [1]; Homo sapiens, A2780) [µM] | IC50 (A2780 [2]; Homo sapiens, A2780) [µM] | IC50 (CH1; Homo sapiens, CH1) [µM] | IC50 (SK-OV-3) [µM] | IC50 (A2780 [3]) [µM] | IC50 (A2780 [1]; a2780) [µM] | IC50 (A2780 [2]; a2780) [µM] | IC50 (CH1; ch1) [µM] |
| --- | --- | --- | --- | --- | --- | --- | --- | --- |
| N=C(NCC1CC1)c1ccc(-c2ccc(-c3ccc(C(=N)NCC4CC4)cc3)o2)cc1 | 36 | 13 | 15 | 56 |  |  |  |  |
| N=C(NC1CCCCC1)c1ccc(-c2ccc(-c3ccc(C(=N)NC4CCCCC4)cc3)o2)cc1 | 4.8 | 2.5 | 2.1 | 5.2 |  |  |  |  |
| CC(C)CNC(=N)c1ccc(-c2ccc(-c3ccc(C(=N)NCC(C)C)cc3)o2)cc1 | 22.5 | 12 | 9 | 52 |  |  |  |  |
| CC(C)NC(=N)c1ccc(-c2ccc(-c3ccc(C(=N)NC(C)C)cc3)o2)cc1 | 38 | 6.4 | 44.5 | 20.5 |  |  |  |  |
| N=C(NC1CCCC1)c1ccc(-c2ccc(-c3ccc(C(=N)NC4CCCC4)cc3)o2)cc1 | 12 | 3.8 | 3.6 | 17 |  |  |  |  |
| CCC(CC)NC(=N)c1ccc(-c2ccc(-c3ccc(C(=N)NC(CC)CC)cc3)o2)cc1 | 32.5 | 7.1 | 16 | 31 |  |  |  |  |
| N=C(NC1CCC1)c1ccc(-c2ccc(-c3ccc(C(=N)NC4CCC4)cc3)o2)cc1 | 11 | 3.3 | 4.2 | 25 |  |  |  |  |
| N=C(NC1CC1)c1ccc(-c2ccc(-c3ccc(C(=N)NC4CC4)cc3)o2)cc1 | 37 | 15.5 | 18 | 48 |  |  |  |  |
| N=C(N)c1ccc(-c2ccc(-c3ccc(C(=N)N)cc3)o2)cc1 [FURAMIDINE] |  | 15.5 | 46.5 | 42.5 | 46 |  |  |  |
| CISPLATIN |  |  |  |  |  | 0.3 | 3.3 | 0.1 |
